Where two headings read alike, the source gives them in different places.
Legend:
P450 enzymes = assay: Induction of P450 enzymes in rat liver; type: in vivo
Description: In addition, non-clinical pharmacokinetic studies of Icotinib hydrochloride Crystalline Form I in Beagle dogs and rats were conducted.

[1] = tested on: H460 human lung adenocarcinoma xenograft; type: in vivo
[2] = tested on: advanced non-small cell lung cancer (NSCLC); assay: Phase IIa clinical trial in advanced NSCLC patients; type: in vivo, human
Description: Definitions of terms used: PR: partial remission, CR: complete remission, SD: stable disease, PD: progression of disease, ORR: objective response rate, DCR: disease control rate.

[3] = tested on: human A431 (human epidermoid carcinoma cell line) xenograft tumor; assay: Tumor inhibition on human A431 xenograft in nude mice; type: in vivo, BALB/C nude mice
Description: This was a preliminary study to compare Icotinib hydrochloride Crystalline Form I with erlotinib hydrochloride on inhibition of human A431 (human epidermoid carcinoma cell line) xenograft tumor.
Methods: The high EGFR-expressing human A431 (human epidermoid carcinoma cell line) cell line was selected for the xenograft study.
Tumor transplantation method: A431 human epidermoid cancer cells were inoculated subcutaneously in the right armpit of BALB/C nude mice to generate tumor nodules. These nodules were harvested, cut into 6 mm^3 blocks for routine inoculation and implanted into each mouse for the study. When tumors reached approximately 20 mm^3 in size (6-7 days), the animals were randomly divided into 4 groups of 6-9 animals/each group and body weights were recorded. The groups consisted of a control group (no drug treatment), an erlotinib hydrochloride treatment group (200 mg/kg) and high and low dose Icotinib hydrochloride Crystalline Form I treatment groups (200 and 50 mg/kg). Drugs were administered by oral gavage once daily; dosing frequency depended on the individual case for tumor growth. Tumor volume [tumor volume (V)=tumor size (L)×short diameter of tumor (S)^2/2] was measured using calipers once every 3 days. The animals were sacrificed 24-hour after the last drug administration and weighed. The tumor was removed and weighed to accurately calculate the tumor size. All group data was analyzed using the t test. If the p value was <0.05, it was considered to be statistically significant. Efficacy determination: tumor inhibition rate=[1−treatment group mean tumor weight (T)/control group mean tumor weight (C)]×100%

[4] = Phase I clinical safety study, single doses of tablets; type: in vivo, human; settings: 25-1025 mg single doses, 76 subjects
EGFR tyrosine kinase = EGFR tyrosine kinase (Homo sapiens, UniProt P00533); assay: Inhibition of EGFR tyrosine kinase, 32P-ATP Crk substrate phosphorylation, polyacrylamide gel electrophoresis; type: biochemical; settings: for inhibition at 0.0625 µM: 62.5 nM
EGFR tyrosine kinase, sequence (P00533 25-1210): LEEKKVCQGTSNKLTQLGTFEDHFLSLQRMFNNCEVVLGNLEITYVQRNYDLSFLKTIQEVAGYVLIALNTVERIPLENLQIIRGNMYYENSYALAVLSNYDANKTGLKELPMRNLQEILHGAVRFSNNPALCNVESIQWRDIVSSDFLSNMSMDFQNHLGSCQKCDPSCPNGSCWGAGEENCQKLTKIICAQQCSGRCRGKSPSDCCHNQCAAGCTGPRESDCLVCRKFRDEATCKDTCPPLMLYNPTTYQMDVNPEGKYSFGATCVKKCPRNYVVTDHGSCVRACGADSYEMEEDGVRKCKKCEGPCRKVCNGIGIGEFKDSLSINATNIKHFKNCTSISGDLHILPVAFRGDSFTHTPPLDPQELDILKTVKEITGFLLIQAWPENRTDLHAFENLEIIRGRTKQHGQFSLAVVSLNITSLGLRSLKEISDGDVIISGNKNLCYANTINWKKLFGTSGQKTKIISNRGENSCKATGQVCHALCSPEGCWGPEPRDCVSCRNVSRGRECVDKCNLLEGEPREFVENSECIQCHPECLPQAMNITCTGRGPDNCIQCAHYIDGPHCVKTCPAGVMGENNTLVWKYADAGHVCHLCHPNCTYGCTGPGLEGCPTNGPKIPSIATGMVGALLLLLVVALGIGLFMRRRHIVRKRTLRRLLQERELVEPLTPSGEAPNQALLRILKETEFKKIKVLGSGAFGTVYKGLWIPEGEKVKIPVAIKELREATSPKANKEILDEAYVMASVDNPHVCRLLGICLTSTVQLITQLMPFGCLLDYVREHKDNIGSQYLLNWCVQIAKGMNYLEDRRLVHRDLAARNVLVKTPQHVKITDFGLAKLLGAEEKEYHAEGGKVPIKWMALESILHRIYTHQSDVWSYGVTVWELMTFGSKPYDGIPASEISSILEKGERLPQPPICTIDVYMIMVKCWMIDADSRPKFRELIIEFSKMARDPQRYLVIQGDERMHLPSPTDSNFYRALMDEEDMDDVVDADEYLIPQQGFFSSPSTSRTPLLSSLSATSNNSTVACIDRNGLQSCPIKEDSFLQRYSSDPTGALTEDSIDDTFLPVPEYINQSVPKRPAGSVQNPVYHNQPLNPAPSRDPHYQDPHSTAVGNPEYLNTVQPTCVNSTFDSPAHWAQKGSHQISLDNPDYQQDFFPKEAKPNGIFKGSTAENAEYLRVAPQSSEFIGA
Description: (§1) Method: This method is based on the ability of protein kinases to catalyze substrate phosphorylation; radioisotope ^32P-labeled ATP (^32P-γ-ATP) is utilized in the reaction system to radioactively tag the protein substrate with ^32P. After separation and isolation of the protein substrate by polyacrylamide gel electrophoresis, the intensity of the radioactive ^32P-labeled protein substrate is recorded.
(§2) The kinase reaction buffer included 1 μM of non-isotope labeled-ATP. […] The mixture was incubated on ice for 10 min, and 1 μCi of ^32P-γ-ATP was then added. After incubation at 30° C. for 20 min, SDS (sodium dodecyl sulfate) sample buffer was added, and the mixture was boiled in a 100° C. water bath for 4 min. The samples were separated by 10% SDS-PAGE. After vacuum drying of the polyacrylamide gel, the intensity of radioactively labeled proteins were measured and recorded using a Phosphorimager (Molecular Dynamics Inc.). The signal was quantitatively analyzed utilizing ImageQuant software. The degree of Crk substrate phosphorylation was used to estimate the activity of the kinase. Inhibition (%)=(1−kinase activity of the test group/kinase activity of control group)×100%

[5] = target: Arg (abl-related gene) tyrosine kinase (Homo sapiens, UniProt P42684); assay: Selectivity: inhibition of Arg tyrosine kinase, Crk substrate phosphorylation, same methodology; type: biochemical; settings: 62.5 nM
Arg (abl-related gene) tyrosine kinase, sequence (P42684 whole entry): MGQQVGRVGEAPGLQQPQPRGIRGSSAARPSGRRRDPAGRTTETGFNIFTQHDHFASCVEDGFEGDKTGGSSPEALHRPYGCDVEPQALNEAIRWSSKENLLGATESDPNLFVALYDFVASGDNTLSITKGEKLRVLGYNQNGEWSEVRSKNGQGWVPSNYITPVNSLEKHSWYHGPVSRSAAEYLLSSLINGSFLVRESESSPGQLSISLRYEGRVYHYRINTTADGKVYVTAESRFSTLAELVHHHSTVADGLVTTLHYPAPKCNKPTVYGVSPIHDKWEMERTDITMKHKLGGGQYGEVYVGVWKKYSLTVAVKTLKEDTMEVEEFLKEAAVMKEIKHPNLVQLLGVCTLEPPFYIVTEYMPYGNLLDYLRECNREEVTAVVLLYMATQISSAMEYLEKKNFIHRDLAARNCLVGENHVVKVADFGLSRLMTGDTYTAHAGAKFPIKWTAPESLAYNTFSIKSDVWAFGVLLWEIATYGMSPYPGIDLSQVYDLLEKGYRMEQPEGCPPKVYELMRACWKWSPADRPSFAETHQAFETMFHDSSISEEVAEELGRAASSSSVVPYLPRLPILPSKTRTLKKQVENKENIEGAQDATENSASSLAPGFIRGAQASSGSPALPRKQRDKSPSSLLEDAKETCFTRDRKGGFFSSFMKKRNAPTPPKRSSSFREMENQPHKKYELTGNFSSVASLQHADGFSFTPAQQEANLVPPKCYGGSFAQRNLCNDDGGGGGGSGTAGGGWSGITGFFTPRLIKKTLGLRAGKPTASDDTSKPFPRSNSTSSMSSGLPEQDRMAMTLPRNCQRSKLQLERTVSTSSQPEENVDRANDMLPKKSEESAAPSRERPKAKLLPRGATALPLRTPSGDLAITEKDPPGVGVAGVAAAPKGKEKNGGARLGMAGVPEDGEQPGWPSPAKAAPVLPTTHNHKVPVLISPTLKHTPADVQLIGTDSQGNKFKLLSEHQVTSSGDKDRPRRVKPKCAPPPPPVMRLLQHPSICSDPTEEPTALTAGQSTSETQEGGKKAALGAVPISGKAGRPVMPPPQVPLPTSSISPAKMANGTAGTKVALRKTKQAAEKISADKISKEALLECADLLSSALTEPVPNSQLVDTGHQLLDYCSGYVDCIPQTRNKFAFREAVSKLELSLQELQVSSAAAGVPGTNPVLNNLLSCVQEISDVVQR
Description: as §1, §2

[6] = Pharmacokinetic study of the different crystalline forms and the free base in rats; type: in vivo, Wistar rats; settings: for The area under the concentration-time curve (0-infinity) / The area under the concentration-time curve (0-t): fasted Wistar rats, oral suspension, dose equivalent to 35 mg/kg Icotinib hydrochloride, plasma, hydrochloride
Description: Drugs and reagents: Icotinib (free base) and Icotinib hydrochloride crystalline forms I, II, III, and IV were ground to fine particles. The material content (purity) was not less than 99.0%. Sodium carboxymethyl cellulose was medical supply graded. Experimental animals: Wistar rats, male and female, 150-220 g each. Pharmaceutical preparation: Weigh the appropriate amount of each substance and add sodium carboxymethyl cellulose to 0.5%. Prepare a suspension at a final concentration of 3.5 mg/mL in water. Administration and sample collection: Each suspension was administered orally to fasted Wistar rats at a dose equivalent to 35 mg/kg Icotinib hydrochloride in a dose volume of 10 ml/kg. […] After purification, samples were analyzed by high performance liquid chromatography. The chromatographic conditions utilized C18-silane bonded silica as stationary phase, 0.02 mol/L of sodium dihydrogen phosphate in acetonitrile (40:60, using sodium hydroxide solution to adjust pH to 5.0) as the mobile phase and a detection wavelength of 334 nm.

[7] = 225 mg/day (75 mg, 3 times a day)
[8] = 300 mg/day (100 mg, 3 times a day)
[9] = 300 mg/day (150 mg, Twice a day)
[10] = 375 mg/day (125 mg, 3 times a day)
[11] = 400 mg/day (200 mg, Twice a day)
[12] = 450 mg/day (150 mg, 3 times a day)
[13] = 600 mg/day (200 mg, 3 times a day)

SMILES: C#Cc1cccc(Nc2ncnc3cc4c(cc23)OCCOCCOCCO4)c1.Cl [4-[(3-ethynyl-phenyl)amino]-6,7-benzo-12-crown-quinazoline hydrochloride]
- induction effect on P450 enzymes (P450 enzymes): No significant induction effect
- H460 tumor inhibition rate ([1]; 30 mg/kg oral gavage once daily for 14 days): 37.5%
- H460 tumor inhibition rate ([1]; 60 mg/kg oral gavage once daily for 14 days): 49.3%
- H460 tumor inhibition rate ([1]; 120 mg/kg oral gavage once daily for 14 days): 52.0%
- CR (complete remission), number of patients [2, 7]: 0
- DCR (disease control rate) [2, 7]: 85.70%
- ORR (objective response rate) [2, 7]: 0.00%
- PD (progression of disease), number of patients [2, 7]: 1
- PR (partial remission), number of patients [2, 7]: 0
- CR (complete remission), number of patients [2, 8]: 2
- DCR (disease control rate) [2, 8]: 62.96%
- ORR (objective response rate) [2, 8]: 25.93%
- PD (progression of disease), number of patients [2, 8]: 10
- PR (partial remission), number of patients [2, 8]: 5
- CR (complete remission), number of patients [2, 9]: 1
- DCR (disease control rate) [2, 9]: 69.57%
- ORR (objective response rate) [2, 9]: 30.43%
- PD (progression of disease), number of patients [2, 9]: 4
- PR (partial remission), number of patients [2, 9]: 6
- CR (complete remission), number of patients [2, 10]: 0
- DCR (disease control rate) [2, 10]: 91.70%
- ORR (objective response rate) [2, 10]: 37.50%
- PD (progression of disease), number of patients [2, 10]: 2
- PR (partial remission), number of patients [2, 10]: 9
- CR (complete remission), number of patients [2, 11]: 0
- DCR (disease control rate) [2, 11]: 55.56%
- ORR (objective response rate) [2, 11]: 0.00%
- PD (progression of disease), number of patients [2, 11]: 3
- PR (partial remission), number of patients [2, 11]: 0
- CR (complete remission), number of patients [2, 12]: 0
- DCR (disease control rate) [2, 12]: 90.10%
- ORR (objective response rate) [2, 12]: 45.45%
- PD (progression of disease), number of patients [2, 12]: 1
- PR (partial remission), number of patients [2, 12]: 5
- CR (complete remission), number of patients [2, 13]: 0
- DCR (disease control rate) [2, 13]: 66.67%
- ORR (objective response rate) [2, 13]: 0.00%
- PD (progression of disease), number of patients [2, 13]: 1
- treatment of non-small cell lung cancer (in words) ([2]; advanced NSCLC patients, oral tablets): effective
- inhibitory activity on drug metabolism enzymes (drug metabolism enzymes): no inhibitory activity
- body weight and appearance at experiment termination ([3]; A431 xenograft nude mice): gained weight
- tumor inhibition rate ([3]; A431 xenograft, 200 mg/kg oral gavage once daily (later reduced to 100 mg/kg)): 64.6%
- toxic effects ([3]; at either dose (200 and 50 mg/kg)): No toxic effects were observed
- anti-tumor effect (in words) ([3]; given orally, A431 xenograft mouse model): significant anti-tumor effects
- clinical safety of single doses [4]: safe
- inhibition at 0.0005 µM (EGFR tyrosine kinase; 0.5 nM, read-out: inhibition rate of EGFR kinase activity): 20.5%
- inhibition at 0.0025 µM (EGFR tyrosine kinase; 2.5 nM, read-out: inhibition rate of EGFR kinase activity): 36.6%
- inhibition at 0.0125 µM (EGFR tyrosine kinase; 12.5 nM, read-out: inhibition rate of EGFR kinase activity): 63%
- inhibition at 0.0625 µM (EGFR tyrosine kinase; parallel comparison with Arg kinase, read-out: inhibition of EGFR kinase): 97%
- inhibition at 0.0625 µM (EGFR tyrosine kinase; read-out: inhibition rate of EGFR kinase activity): 87.6%
- IC50 (EGFR tyrosine kinase; from the dose-response curve, read-out: IC50 to inhibit EGFR kinase activity): 5 nM
- inhibition of Arg kinase [5]: did not inhibit
- area under the concentration-time curve (0-t) and (0-infinity) relative to the free base form ([6]; Wistar rats, oral, 35 mg/kg equivalent): approximately 3 times
- The area under the concentration-time curve (0-infinity) ([6]; listed as Crystalline Form I): 93.73
- The area under the concentration-time curve (0-t) ([6]; listed as Crystalline Form I): 91.80
- The area under the concentration-time curve (0-infinity) ([6]; listed as Crystalline Form II): 90.77
- The area under the concentration-time curve (0-t) ([6]; listed as Crystalline Form II): 88.28
- The area under the concentration-time curve (0-infinity) ([6]; listed as Crystalline Form III): 90.26
- The area under the concentration-time curve (0-t) ([6]; listed as Crystalline Form III): 89.23
- The area under the concentration-time curve (0-infinity) ([6]; listed as Crystalline Form IV): 90.23
- The area under the concentration-time curve (0-t) ([6]; listed as Crystalline Form IV): 86.29

Reference: US8822482B2, “Icotinib hydrochloride, synthesis, crystalline forms, pharmaceutical compositions, and uses thereof” (Beta Pharma, Inc., priority 2008, dated 2014)
